Patent publication US7312179B2, “Cyclopropyl-thienyl-carboxamide as fungicides” (Syngenta Crop Protection, Inc., priority 2002, dated 2007)

Cn1cc(C(=O)Nc2ccsc2C2CC2C2CC2)c(C(F)F)n1 (stereo not shown) [Compound 4.34, 3-difluoromethyl-1-methyl-1H-pyrazole-4-carboxylic acid (2-bicyclo-propyl-2-yl-thiophen-3-yl)amide]
melting point: 76 to 79 °C
